Experimental data published in patent publication US11026889B2, “Polymeric drug delivery systems for treatment of disease” (Board of Regents, The University of Texas System, priority 2015, dated 2021).

Tests used:
Panc-1 cells = test: Cell proliferation MTS assay, Panc-1; assay type: cell-based; conditions: Homo sapiens, 72 h
Experimental: (§1) Assays of cell proliferation and clonogenicity. Cells were seeded at 2000 cells/well in 96-well plates and treated at 37° C. for 72 h before MTS [3-(4,5-dimethylthiazol-2-yl)-5-(3-carboxymethoxyphenyl)-2-(4-sulfophenyl)-2H- tetrazolium] assay. The proportion of viable cells was normalized to that of untreated cells and expressed as mean±standard error of the mean (n=6). […] Cells were seeded at 1000 cells per 10-cm plate in growth medium overnight and treated at 37° C. for 10 days. At the end of this 10-day period, colonies were fixed with formalin and stained with crystal violet. Colonies with more than 20 cells were counted.

Miapaca-2 cells [1] = test: Cell proliferation MTS assay, Miapaca-2; assay type: cell-based; conditions: Homo sapiens, MIA PaCa-2, 72 h
Experimental: as §1

L3.6pl cells = test: Cell proliferation MTS assay, L3.6pl; assay type: cell-based; conditions: Homo sapiens, 72 h
Experimental: as §1

Miapaca-2 cells [2] = test: Clonogenicity assay, Miapaca-2; assay type: cell-based, human; conditions: 3 μM, 10 days, vs no treatment
Experimental: as §1

HPSCs = test: Cell proliferation MTS assay, HPSCs; assay type: cell-based; conditions: 72 h, read-out: IC50, HPSC proliferation
Experimental: as §1

[3] = system: spontaneous PDAC of KPC-luc mice; test: Survival study in KPC-luc mice; assay type: in vivo; conditions: KPC-luc mice enrolled at 95 to 100 days of age; CTL 139 days
Experimental: FIG. 22: Antitumor efficacy of M-CPA/PTX in a transgenic mice model with spontaneous PDAC in the pancreas of KPC-Luc mice. Mice with positive bioluminescence signals were enrolled at 95 to 100 days of age. M-CPA/PTX was given at 5 mg/kg/drug per injection. The treatment schedule was: 3 intravenous injections per week for the first 2 weeks, followed by 2 intraperitoneal injections per week until death or 90 days from the initiation of treatment. Untreated mice were kept as control (CTL). Gemcitabine and abraxane were used as the standard therapies. Gemcitabine was intraperitoneally injected at 100 mg/kg every other day until death. Abraxane was given at 5 mg/kg/injection following the same schedule as M-CPA/PTX.
The genetically engineered mouse model of PDAC (the KPC-luc mouse model) was also used to test for the antitumor efficacy of drug-loaded micelles on tumors in a survival study. […] The mice were assigned into four different groups: (1) mice with untreated […] (control group), (2) mice intravenously injected gemcitabine at 100 mg/kg every other day until death, (3) mice given Abraxane at 5 mg/kg/injection, and (4) M-CPA/PTX given at 5 mg/kg/drug per injection. […]

Structure (SMILES)	IC50 (Panc-1 cells)	IC50 (Miapaca-2 cells [1])	IC50 (L3.6pl cells)	reduction of the number of colonies (Miapaca-2 cells [2])	IC50 (HPSCs)	median survival [3]
CC1=C2C[C@H]3[C@@H](CC=C4C[C@@H](O)CC[C@@]43C)[C@@H]2CC[C@]12O[C@@H]1C[C@H](C)CN[C@H]1[C@H]2C [CPA, cyclopamine]	~163 µM	10.2 ± 0.1 µM	16 ± 1.5 µM	18.2±1.3%	13.3 ± 1.2 µM	
CC(=O)O[C@H]1C(=O)[C@@]2(C)[C@H]([C@H](OC(=O)c3ccccc3)[C@]3(O)C[C@H](OC(=O)[C@H](O)[C@@H](NC(=O)c4ccccc4)c4ccccc4)C(C)=C1C3(C)C)[C@]1(OC(C)=O)CO[C@@H]1C[C@@H]2O [PTX, paclitaxel]	0.0024 ± 0.0004 µM	0.0012 ± 0.0001 µM	0.0014 ± 0.0001 µM			
Nc1ccn([C@@H]2O[C@H](CO)[C@@H](O)C2(F)F)c(=O)n1 [gemcitabine]						167 days
